Measured values taken from patent publication US20090298708A1, “2'-DEOXY-2'-FLUORO-BETA-D-ARABINONUCLEOSIDE 5'-TRIPHOSPHATES AND THEIR USE IN ENZYMATIC NUCLEIC ACID SYNTHESIS” (priority 2006, published 2009).
Entries after “also recorded” stand apart in the source; their conditions may differ. Marks after values point to notes of the source that are not given here.

Molecular target: T1, Deep Vent® (3′→5′ exo-) DNA polymerase (DV) (Pyrococcus sp., UniProt Q51334, D141A/DEL493-1029/E143A)
T1 construct: purchased New England Biolabs; host or cells: E. coli
T1 sequence (Q51334 other isoform, or with tags, fused parts or gaps D141A/E143A/DEL493-1029): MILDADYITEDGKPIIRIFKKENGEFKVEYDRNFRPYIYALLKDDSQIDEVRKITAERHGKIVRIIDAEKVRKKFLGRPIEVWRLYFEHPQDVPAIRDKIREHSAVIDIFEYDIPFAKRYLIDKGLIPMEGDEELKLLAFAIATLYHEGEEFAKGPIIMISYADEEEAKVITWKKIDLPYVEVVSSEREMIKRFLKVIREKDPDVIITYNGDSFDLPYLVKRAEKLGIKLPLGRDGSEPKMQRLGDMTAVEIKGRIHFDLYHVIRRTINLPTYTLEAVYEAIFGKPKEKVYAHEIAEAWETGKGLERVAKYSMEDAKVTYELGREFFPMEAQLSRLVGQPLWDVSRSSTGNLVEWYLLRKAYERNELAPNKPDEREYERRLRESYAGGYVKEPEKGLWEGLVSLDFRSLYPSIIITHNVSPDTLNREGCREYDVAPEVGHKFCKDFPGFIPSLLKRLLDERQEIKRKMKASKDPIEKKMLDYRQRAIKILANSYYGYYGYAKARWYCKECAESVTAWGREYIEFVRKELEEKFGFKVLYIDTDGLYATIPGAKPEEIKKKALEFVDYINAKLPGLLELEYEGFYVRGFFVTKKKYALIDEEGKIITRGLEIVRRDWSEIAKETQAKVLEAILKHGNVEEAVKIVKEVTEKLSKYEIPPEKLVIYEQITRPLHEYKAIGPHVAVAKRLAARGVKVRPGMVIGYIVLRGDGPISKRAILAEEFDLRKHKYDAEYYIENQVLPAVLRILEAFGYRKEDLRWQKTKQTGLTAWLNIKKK
Assay: Primer extension assay with Deep Vent (exo-) DNA polymerase
Type: biochemical, Pyrococcus species GB-D
Design: key to Incorporation of three 2′F-araTTP / 2′F-araCTP (incorporation efficiency) / Enzymatic activity during primer extension reactions: ++++: excellent (no pausing observed); +++: very good (with slight pausing); ++: Good, full-length products with significant pausing; +: significant pausing, no full-length product but at least one 2′F-araN incorporation detected
Conditions: for Incorporation of three 2′F-araTTP / 2′F-araCTP (incorporation efficiency): DNA template PF22 (2′F-araTTP) or PF24 (2′F-araCTP); for Order of efficiency of incorporation: DNA template PF22 (T/U triphosphates) or PF24 (C triphosphates), three contiguous units; for Enzymatic activity during primer extension reactions: plus dATP, dGTP
Description: Various different types of DNA polymerases were assessed, including the mesophilic enzyme Klenow fragment of DNA pol I (3′→5′ exo-) (“Kf”); the thermophilic DNA polymerases DV, 9N, Taq, Bst pol I, Th and Ph; and the viral reverse transcriptases HIV RT and MMLV. Kf is a genetically engineered proteolytic product of E. coli pol A gene that encodes DNA polymerase I which retains polymerase activity but has a mutation which abolishes the 3′->5′ and 5′->3′ exonuclease activities. DV is a genetically engineered DNA polymerase purified from a strain of E. coli that carries the DV DNA polymerase gene from Pyrococcus species GB-D. The gene has been engineered to eliminate 3′->5′ proofreading exonuclease activity. 9N is a genetically engineered DNA polymerase that has decreased 3′->5′ proofreading exonuclease activity. 9N is purified from a strain of E. coli that carries a modified 9° N DNA polymerase gene from Thermococcus species (strain 9° N-7). […] Taq polymerase is isolated from E. coli engineered to express Taq polymerase from Thermus aquaticus YT-1. Bst DNA polymerase (Large fragment) is a genetically engineered polymerase that consists of the portion of the Bacillus stearothemmophilus DNA polymerase protein responsible for 5′->3′ polymerase activity but lacks the 5′->3′ exonuclease domain. Th DNA polymerase is a genetically engineered, archaeon-derived DNA polymerase that is a variant of the 9N polymerase described above. The recombinant protein is isolated from E. coli engineered to express 9° NA485L (exo-) DNA polymerase gene, a genetic variant of the native DNA polymerase from Thermococcus species 9° N-7. Ph is a recombinant DNA polymerase that consists of a novel Pyrococcus-like enzyme fused with a double-strand DNA-binding and processivity-enhancing domain.
Primer extension assays were used to assess the incorporation of 2′F-araNTP on the various DNA templates (Table 1). The DNA primer (PF20) was first radioactively labeled at the 5′-hydroxyl terminus with a radioactive phosphorus probe and the enzyme T4 polynucleotide kinase (T4 PNK) (see Example 1 for General Methods). To assess the incorporation of 2′F-araNTPs, the primer and template were annealed, and the nucleoside 5′-triphosphates added in the presence of enzyme under the conditions specified in Table 2. Time points were obtained by analyzing small aliquots from the reaction mixture through polyacryamide gel electrophoresis (PAGE) and autoradiography.
Unless otherwise noticed in the Examples described below, the conditions used in the primer extension assays, such as dNTP concentration, reaction temperatures, concentration of Mg^2+, and reaction buffers (provided by the manufacturers, except for the HIV buffer which was prepared in-house) are shown in Table 2.
Primer extension assays were used to assess the incorporation of 2′F-araTTP on the DNA template (PF22). The DNA primer (PF20) was first radioactively labeled at the 5′-hydroxyl terminus with a radioactive phosphorus probe and the enzyme T4 polynucleotide kinase (T4 PNK) according to the manufacturer's specifications (MBI Fermentas Life Sciences, Burlington, ON). Incorporation of the ^32P label was accomplished in reaction mixtures consisting of DNA substrate (200 pmol), 2 μl loxreaction buffer (Buffer A for forward reaction: 500 mM Tris-HCl, pH 7.6 at 25° C., 100 mM MgCl2, 50 mM DTT, 1 mM spermidine and 1 mM EDTA), 1 μl T4 PNK enzyme solution (10 U/1 μl in a solution of 20 mM Tris-HCl, pH 7.5, 25 mM KCl, 0.1 mM EDTA, 2 mM DTT and 50% glycerol), 6 μl [γ-^32P]-ATP solution (6000 Ci/mmol, 10 mCi/ml; Amersham Biosciences, Inc.) and autoclaved sterile water to a final volume of 20 μl. The reaction mixture was incubated for about 45-60 min at 37° C., followed by a second incubation for 10 min at 95° C. to heat denature and deactivate the kinase enzyme.

Structure (SMILES)	Incorporation of three 2′F-araTTP / 2′F-araCTP (incorporation efficiency) (37° C.)	Order of efficiency of incorporation (55° C.)	other results
Nc1ccn([C@@H]2O[C@H](COP(=O)(O)OP(=O)(O)OP(=O)(O)O)[C@@H](O)[C@@H]2F)c(=O)n1 [2′F-araCTP, 1-(2-deoxy-2-fluoro-β-D-arabinofuranosyl)cytosine 5′-triphosphate]	+++	dCTP~2′F-rCTP~2′F-araCTP	Incorporation of three 2′F-araTTP / 2′F-araCTP (incorporation efficiency) (55° C.): ++++; Enzymatic activity during primer extension reactions (Example 3, DNA template PF24, 3x 2′F-araCTP, dTTP, 55° C.): ++++
Cc1cn([C@@H]2O[C@H](COP(=O)(O)OP(=O)(O)OP(=O)(O)O)[C@@H](O)[C@@H]2F)c(=O)[nH]c1=O [2′F-araTTP, 1-(2-deoxy-2-fluoro-β-D-arabino-furanosyl)thymine 5′-triphosphate]	++++	dTTP~2′F-araTTP > 2′F-rUTP	yield of full length product (DNA template PF22, after 5 min, 55° C.): nearly quantitative yield; also recorded: near quantitative yield; Enzymatic activity during primer extension reactions (Example 2, DNA template PF22, 3x 2′F-araTTP, dCTP, at 37° C.): +++^b
Nc1ccn([C@@H]2O[C@H](COP(=O)(O)OP(=O)(O)OP(=O)(O)O)[C@@H](O)[C@H]2F)c(=O)n1 [2′F-rCTP, 1-(2-deoxy-2-fluoro-β-D-ribofuranosyl) cytosine 5′-triphosphate, reference compound]	–	dCTP~2′F-rCTP~2′F-araCTP	–
O=c1ccn([C@@H]2O[C@H](COP(=O)(O)OP(=O)(O)OP(=O)(O)O)[C@@H](O)[C@H]2F)c(=O)[nH]1 [2′F-rUTP, 1-(2-deoxy-2-fluoro-β-D-ribo-furanosyl)uracil 5′-triphosphate, reference compound]	–	dTTP~2′F-araTTP > 2′F-rUTP	desired full-length product (DNA template PF22, after 9.5 h, 55° C.): 20%
Nc1ccn([C@H]2C[C@H](O)[C@@H](COP(=O)(O)OP(=O)(O)OP(=O)(O)O)O2)c(=O)n1 [dCTP]	–	dCTP~2′F-rCTP~2′F-araCTP	–
Cc1cn([C@H]2C[C@H](O)[C@@H](COP(=O)(O)OP(=O)(O)OP(=O)(O)O)O2)c(=O)[nH]c1=O [dTTP, reference compound]	–	dTTP~2′F-araTTP > 2′F-rUTP	–
